Results from patent US5672715A, “Herbicidal substituted 3-aryl-pyrazoles” (Monsanto Company, priority 1995, dated 1997).
Where “and” joins values, the source holds several entries; their conditions need not be identical. Identical values can stand only once.

Columns and labels:
Type in all cases: in vivo
[1] = tested on: Bedstraw Catchweed; assay: pre-emergence herbicide test; details: 0.25 lb/A; for inhibition at 280.212 g/ha: Galium aparine, pre-emergence, read-out: % plant inhibition
Procedure, shortened: (§1)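 Known amounts of active ingredient went into the cover soil over seeds sown in pans, either before or after the layer was spread. An initial 1/4 inch overhead irrigation was given in some cases; otherwise pans were subirrigated. Rating was % inhibition at ~14 days.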

[2] = tested on: Corn; assay: pre-emergence herbicide test; details: 0.25 lb/A; for inhibition at 280.212 g/ha: Zea mays, pre-emergence, read-out: % plant inhibition
Procedure, shortened: as §1

[3] = tested on: Blackgrass; assay: pre-emergence herbicide test; details: 0.25 lb/A; for inhibition at 280.212 g/ha: Alopecurus myosuroides, pre-emergence, read-out: % plant inhibition
Procedure, shortened: as §1

[4] = tested on: Green Foxtail; assay: pre-emergence herbicide test; details: 0.25 lb/A; for inhibition at 280.212 g/ha: Setaria viridis, pre-emergence, read-out: % plant inhibition
Procedure, shortened: as §1

[5] = tested on: Downy Brome; assay: pre-emergence herbicide test; details: 0.25 lb/A; for inhibition at 280.212 g/ha: Bromus tectorum, pre-emergence, read-out: % plant inhibition
Procedure, shortened: as §1

[6] = tested on: Cocklebur; assay: pre-emergence herbicide test; details: 0.25 lb/A; for inhibition at 280.212 g/ha: Xanthium strumarium, pre-emergence, read-out: % plant inhibition
Procedure, shortened: as §1

[7] = tested on: Seedling Johnsongrass; assay: pre-emergence herbicide test; details: 0.25 lb/A; for inhibition at 280.212 g/ha: Sorghum halepense, pre-emergence, read-out: % plant inhibition
Procedure, shortened: as §1

[8] = tested on: Wild Oats; assay: pre-emergence herbicide test; details: 0.25 lb/A; for inhibition at 280.212 g/ha: Avena fatua, pre-emergence, read-out: % plant inhibition
Procedure, shortened: as §1

[9] = tested on: Barnyardgrass; assay: pre-emergence herbicide test; details: 0.25 lb/A; for inhibition at 280.212 g/ha: Echinochloa crus-galli, pre-emergence, read-out: % plant inhibition
Procedure, shortened: as §1

[10] = tested on: Velvetleaf; assay: pre-emergence herbicide test; details: 0.25 lb/A; for inhibition at 280.212 g/ha: Abutilon theophrasti, pre-emergence, read-out: % plant inhibition
Procedure, shortened: as §1

[11] = tested on: Common Chickweed; assay: pre-emergence herbicide test; details: 0.25 lb/A; for inhibition at 280.212 g/ha: pre-emergence, read-out: % plant inhibition
Procedure, shortened: as §1

[12] = tested on: Morning Glory; assay: pre-emergence herbicide test; details: 0.25 lb/A
Procedure, shortened: as §1

[13] = tested on: Soybean; assay: pre-emergence herbicide test; details: 0.25 lb/A; for inhibition at 280.212 g/ha: Glycine max, pre-emergence, read-out: % plant inhibition
Procedure, shortened: as §1

[14] = tested on: Wheat; assay: pre-emergence herbicide test; details: 0.25 lb/A; for inhibition at 280.212 g/ha: Triticum aestivum, pre-emergence, read-out: % plant inhibition
Procedure, shortened: as §1

[15] = tested on: Giant Foxtail; assay: pre-emergence herbicide test; details: 0.25 lb/A; for inhibition at 280.212 g/ha: Setaria faberi, pre-emergence, read-out: % plant inhibition
Procedure, shortened: as §1

[16] = tested on: Birdseye Speedwell; assay: pre-emergence herbicide test; details: 0.25 lb/A; for inhibition at 280.212 g/ha: pre-emergence, read-out: % plant inhibition
Procedure, shortened: as §1

[17] = tested on: Rape; assay: pre-emergence herbicide test; details: 0.25 lb/A; for inhibition at 280.212 g/ha: pre-emergence, read-out: % plant inhibition
Procedure, shortened: as §1

[18] = tested on: Bedstraw Catchweed; assay: post-emergence herbicide test; details: 0.25 lb/A; for inhibition at 280.212 g/ha: Galium aparine, post-emergence, read-out: % plant inhibition
Procedure, shortened: (§2)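 Greenhouse pot test: seeds pressed into compacted topsoil in pans, covered, watered as needed; at two to three weeks plants were sprayed by atomizer at 170.3 kPa, 1870 L/Ha, with about 0.4% v/v emulsifier. Value is percent inhibition per species.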

[19] = tested on: Corn; assay: post-emergence herbicide test; details: 0.25 lb/A; for inhibition at 280.212 g/ha: Zea mays, post-emergence, read-out: % plant inhibition
Procedure, shortened: as §2

[20] = tested on: Blackgrass; assay: post-emergence herbicide test; details: 0.25 lb/A; for inhibition at 280.212 g/ha: Alopecurus myosuroides, post-emergence, read-out: % plant inhibition
Procedure, shortened: as §2

[21] = tested on: Green Foxtail; assay: post-emergence herbicide test; details: 0.25 lb/A; for inhibition at 280.212 g/ha: Setaria viridis, post-emergence, read-out: % plant inhibition
Procedure, shortened: as §2

[22] = tested on: Downy Brome; assay: post-emergence herbicide test; details: 0.25 lb/A; for inhibition at 280.212 g/ha: Bromus tectorum, post-emergence, read-out: % plant inhibition
Procedure, shortened: as §2

[23] = tested on: Cocklebur; assay: post-emergence herbicide test; details: 0.25 lb/A; for inhibition at 280.212 g/ha: Xanthium strumarium, post-emergence, read-out: % plant inhibition
Procedure, shortened: as §2

[24] = tested on: Seedling Johnsongrass; assay: post-emergence herbicide test; details: 0.25 lb/A; for inhibition at 280.212 g/ha: Sorghum halepense, post-emergence, read-out: % plant inhibition
Procedure, shortened: as §2

[25] = tested on: Wild Oats; assay: post-emergence herbicide test; details: 0.25 lb/A; for inhibition at 280.212 g/ha: Avena fatua, post-emergence, read-out: % plant inhibition
Procedure, shortened: as §2

[26] = tested on: Barnyardgrass; assay: post-emergence herbicide test; details: 0.25 lb/A; for inhibition at 280.212 g/ha: Echinochloa crus-galli, post-emergence, read-out: % plant inhibition
Procedure, shortened: as §2

[27] = tested on: Velvetleaf; assay: post-emergence herbicide test; details: 0.25 lb/A; for inhibition at 280.212 g/ha: Abutilon theophrasti, post-emergence, read-out: % plant inhibition
Procedure, shortened: as §2

[28] = tested on: Common Chickweed; assay: post-emergence herbicide test; details: 0.25 lb/A; for inhibition at 280.212 g/ha: post-emergence, read-out: % plant inhibition
Procedure, shortened: as §2

[29] = tested on: Morning Glory; assay: post-emergence herbicide test; details: 0.25 lb/A; for inhibition at 280.212 g/ha: Ipomoea, post-emergence, read-out: % plant inhibition
Procedure, shortened: as §2

[30] = tested on: Soybean; assay: post-emergence herbicide test; details: 0.25 lb/A; for inhibition at 280.212 g/ha: Glycine max, post-emergence, read-out: % plant inhibition
Procedure, shortened: as §2

[31] = tested on: Wheat; assay: post-emergence herbicide test; details: 0.25 lb/A; for inhibition at 280.212 g/ha: Triticum aestivum, post-emergence, read-out: % plant inhibition
Procedure, shortened: as §2

[32] = tested on: Giant Foxtail; assay: post-emergence herbicide test; details: 0.25 lb/A; for inhibition at 280.212 g/ha: Setaria faberi, post-emergence, read-out: % plant inhibition
Procedure, shortened: as §2

[33] = tested on: Birdseye Speedwell; assay: post-emergence herbicide test; details: 0.25 lb/A; for inhibition at 280.212 g/ha: post-emergence, read-out: % plant inhibition
Procedure, shortened: as §2

[34] = tested on: Rape; assay: post-emergence herbicide test; details: 0.25 lb/A; for inhibition at 280.212 g/ha: post-emergence, read-out: % plant inhibition
Procedure, shortened: as §2

CC(C)OC(=O)c1cc(-c2nn(C)c(C(F)(F)F)c2C(F)F)c(F)cc1Cl [Compound 13, 2-Chloro-5-[4-(difluoromethyl)-1-methyl-5-(trifluoromethyl)-1H-pyrazol-3-yl]-4-fluorobenzoic acid, 1-methylethyl ester]
inhibition at 280.212 g/ha [1]: 100% | % plant inhibition [2]: 65% | inhibition at 280.212 g/ha [2]: 80% | inhibition at 280.212 g/ha [3]: 98% | inhibition at 280.212 g/ha [4]: 100% | inhibition at 280.212 g/ha [5]: 100% | % plant inhibition [6]: 75% | inhibition at 280.212 g/ha [6]: 70% | inhibition at 280.212 g/ha [7]: 100% | inhibition at 280.212 g/ha [8]: 95% | % plant inhibition [9]: 99% | inhibition at 280.212 g/ha [9]: 100% | % plant inhibition [10]: 98% | inhibition at 280.212 g/ha [10]: 100% | inhibition at 280.212 g/ha [11]: 90% | % plant inhibition [12]: 50% and 93% | inhibition at 280.212 g/ha [13]: 30% | inhibition at 280.212 g/ha [14]: 3% | inhibition at 280.212 g/ha [15]: 100% | inhibition at 280.212 g/ha [16]: 90% | inhibition at 280.212 g/ha [17]: 65% | inhibition at 280.212 g/ha [18]: 100% | inhibition at 280.212 g/ha [19]: 55% | inhibition at 280.212 g/ha [20]: 95% | inhibition at 280.212 g/ha [21]: 100% | inhibition at 280.212 g/ha [22]: 90% | inhibition at 280.212 g/ha [23]: 95% | inhibition at 280.212 g/ha [24]: 100% | inhibition at 280.212 g/ha [25]: 90% | inhibition at 280.212 g/ha [26]: 90% | inhibition at 280.212 g/ha [27]: 100% | inhibition at 280.212 g/ha [28]: 98% | inhibition at 280.212 g/ha [29]: 98% | inhibition at 280.212 g/ha [30]: 90% | inhibition at 280.212 g/ha [31]: 20% | inhibition at 280.212 g/ha [32]: 95% | inhibition at 280.212 g/ha [33]: 100% | inhibition at 280.212 g/ha [34]: 100%

Cc1c(-c2cc(C(=O)OCCC(C)C)c(Cl)cc2F)nn(C)c1C(F)(F)F [Compound 55]
% plant inhibition [1]: 85% | % plant inhibition [2]: 0% | % plant inhibition [3]: 60% | % plant inhibition [4]: 100% | % plant inhibition [5]: 55% | % plant inhibition [6]: 30% | % plant inhibition [7]: 95% | % plant inhibition [8]: 35% | % plant inhibition [9]: 30% | % plant inhibition [10]: 85% | % plant inhibition [11]: 75% | % plant inhibition [12]: 10% | % plant inhibition [13]: 0% | % plant inhibition [14]: 0% | % plant inhibition [15]: 100% | % plant inhibition [16]: 100% | % plant inhibition [17]: 5% | % plant inhibition [18]: 75% | % plant inhibition [19]: 20% | % plant inhibition [20]: 20% | % plant inhibition [21]: 65% | % plant inhibition [22]: 20% | % plant inhibition [23]: 90% | % plant inhibition [24]: 70% | % plant inhibition [25]: 30% | % plant inhibition [26]: 45% | % plant inhibition [27]: 99% | % plant inhibition [28]: 70% | % plant inhibition [29]: 85% | % plant inhibition [30]: 20% | % plant inhibition [31]: 10% | % plant inhibition [32]: 35% | % plant inhibition [33]: 95% | % plant inhibition [34]: 15%

CCCCCOC(=O)c1cc(-c2nn(C)c(C(F)(F)F)c2C)c(F)cc1Cl [Compound 48]
inhibition at 280.212 g/ha [1]: 45% | inhibition at 280.212 g/ha [2]: 35% | inhibition at 280.212 g/ha [3]: 60% | inhibition at 280.212 g/ha [4]: 100% | inhibition at 280.212 g/ha [5]: 90% | inhibition at 280.212 g/ha [6]: 45% | inhibition at 280.212 g/ha [7]: 98% | inhibition at 280.212 g/ha [8]: 45% | inhibition at 280.212 g/ha [9]: 100% | inhibition at 280.212 g/ha [10]: 95% | inhibition at 280.212 g/ha [11]: 95% | inhibition at 280.212 g/ha ([12]; Ipomoea, pre-emergence, read-out: % plant inhibition): 99% | inhibition at 280.212 g/ha [13]: 0% | inhibition at 280.212 g/ha [14]: 0% | inhibition at 280.212 g/ha [15]: 99% | inhibition at 280.212 g/ha [16]: 100% | inhibition at 280.212 g/ha [17]: 5% | inhibition at 280.212 g/ha [18]: 80% | inhibition at 280.212 g/ha [19]: 7% | inhibition at 280.212 g/ha [20]: 70% | inhibition at 280.212 g/ha [21]: 98% | inhibition at 280.212 g/ha [22]: 65% | inhibition at 280.212 g/ha [23]: 90% | inhibition at 280.212 g/ha [24]: 85% | inhibition at 280.212 g/ha [25]: 75% | inhibition at 280.212 g/ha [26]: 60% | inhibition at 280.212 g/ha [27]: 100% | inhibition at 280.212 g/ha [28]: 65% | inhibition at 280.212 g/ha [29]: 75% | inhibition at 280.212 g/ha [30]: 70% | inhibition at 280.212 g/ha [31]: 16% | inhibition at 280.212 g/ha [32]: 99% | inhibition at 280.212 g/ha [33]: 100% | inhibition at 280.212 g/ha [34]: 60%
